Data reported in ChEMBL document CHEMBL5352381, “Design and development of a novel series of oral bivalent BET inhibitors with potent anticancer activities” (Eur J Med Chem, 2022).

Assays:
Ty-82 = test: Antiproliferative activity against human Ty-82 cells incubated for 72 hrs by sulforhodamine B based cell counting kit-8 assay; format: functional; details: TY82, 72 h
MM1.S = test: Antiproliferative activity against human MM1.S cells incubated for 72 hrs by sulforhodamine B based cell counting kit-8 assay; format: functional
[1] = biological target: Bromodomain-containing protein 4 (Homo sapiens, UniProt O60885); test: Inhibition of full length BRD4 (unknown origin) transfected in HEK293 cells incubated for 20 hrs measured by NanoBRET BRD4/Histone H3.3 interaction assay kit; format: cell-based
[2] = Half life in CD-1 mouse at 10 mg/kg, po; format: ADME, organism-based; details: in vivo
[3] = Tmax in CD-1 mouse at 10 mg/kg, po; format: ADME, organism-based; details: in vivo
[4] = Cmax in CD-1 mouse at 10 mg/kg, po; format: ADME, organism-based; set-up: dose 10 mg/kg, route po; details: in vivo
[5] = AUClast in CD-1 mouse at 10 mg/kg, po; format: ADME, organism-based; set-up: dose 10 mg/kg, route po; details: in vivo
[6] = Observed AUC infinity in CD-1 mouse at 10 mg/kg, po; format: ADME, organism-based; set-up: dose 10 mg/kg, route po; details: in vivo
[7] = Observed MRT infinity in CD-1 mouse at 10 mg/kg, po; format: ADME, organism-based; details: in vivo

SMILES	IC50 (Ty-82)	IC50 (MM1.S)	IC50 [1]	half-life [2]	Tmax [3]	Cmax [4]	AUC(0-t) [5]	AUC(0-inf) [6]	MRT [7]
Cc1ccc(-n2nc(C(=O)N3CCNCC3)nc2-c2ccc3c(c2)N(C2CCCC2)[C@@H](C)C(=O)N3C)cc1	> 20000 nM	> 20000 nM	1730 nM						
Cc1ccc(-n2nc(C(=O)N3C[C@H](C)N(C(=O)c4nc(-c5ccc6c(c5)N(Cc5ccccc5)[C@H](C)C(=O)N6C)n(-c5ccc(C)cc5)n4)C[C@H]3C)nc2-c2ccc3c(c2)N(Cc2ccccc2)[C@H](C)C(=O)N3C)cc1	1.12 nM	1.77 nM							
Cc1ccc(-n2nc(C(=O)N3CCN(C(=O)c4nc(-c5ccc6c(c5)N(C5CCCC5)[C@@H](C)C(=O)N6C)n(-c5ccc(C)cc5)n4)CC3)nc2-c2ccc3c(c2)N(C2CCCC2)[C@H](C)C(=O)N3C)cc1	16.7 nM	3.12 nM	66.6 nM						
Cc1ccc(-n2nc(C(=O)N[C@@H]3CCCC[C@H]3NC(=O)c3nc(-c4ccc5c(c4)N(C4CCCC4)[C@H](C)C(=O)N5C)n(-c4ccc(C)cc4)n3)nc2-c2ccc3c(c2)N(C2CCCC2)[C@H](C)C(=O)N3C)cc1				6 min	160 min	33.7 ng/mL	205 ng·h/mL	278 ng·h/mL	672 min
Cc1ccc(-n2nc(C(=O)N(C)CCN(C)C(=O)c3nc(-c4ccc5c(c4)N(C4CCCC4)[C@H](C)C(=O)N5C)n(-c4ccc(C)cc4)n3)nc2-c2ccc3c(c2)N(C2CCCC2)[C@H](C)C(=O)N3C)cc1				29.4 min	15 min	264 ng/mL	124 ng·h/mL	129 ng·h/mL	64.2 min
Cc1ccc(-n2nc(C(=O)N3CCC4(CCN(C(=O)c5nc(-c6ccc7c(c6)N(C6CCCC6)[C@H](C)C(=O)N7C)n(-c6ccc(C)cc6)n5)C4)C3)nc2-c2ccc3c(c2)N(C2CCCC2)[C@H](C)C(=O)N3C)cc1	2.5 nM	0.74 nM							
Cc1ccc(-n2nc(C(=O)N3CCNCC3)nc2-c2ccc3c(c2)N(C2CCCC2)[C@H](C)C(=O)N3C)cc1	24.1 nM	47.4 nM	52.2 nM						
C[C@@H]1C(=O)N(C)c2ccc(-c3nc(C(=O)N4CCN(C(=O)c5nc(-c6ccc7c(c6)N(C6CCCC6)[C@H](C)C(=O)N7C)n(-c6ccc7ccccc7c6)n5)CC4)nn3-c3ccc4ccccc4c3)cc2N1C1CCCC1	0.6 nM	0.51 nM							
Cc1ccc(-n2nc(C(=O)NCCCNC(=O)c3nc(-c4ccc5c(c4)N(C4CCCC4)[C@H](C)C(=O)N5C)n(-c4ccc(C)cc4)n3)nc2-c2ccc3c(c2)N(C2CCCC2)[C@H](C)C(=O)N3C)cc1				44.4 min	34.8 min	58.1 ng/mL	71.5 ng·h/mL	75.8 ng·h/mL	105 min
Cc1ccc(-n2nc(C(=O)N3C[C@H](C)N(C(=O)c4nc(-c5ccc6c(c5)N(C5CCCC5)[C@H](C)C(=O)N6C)n(-c5ccc(C)cc5C)n4)C[C@H]3C)nc2-c2ccc3c(c2)N(C2CCCC2)[C@H](C)C(=O)N3C)c(C)c1	0.75 nM	0.29 nM							
Cc1ccc(-n2nc(C(=O)N3CCCN(C(=O)c4nc(-c5ccc6c(c5)N(C5CCCC5)[C@H](C)C(=O)N6C)n(-c5ccc(C)cc5)n4)CC3)nc2-c2ccc3c(c2)N(C2CCCC2)[C@H](C)C(=O)N3C)cc1				9 min	30 min	286 ng/mL	368 ng·h/mL	371 ng·h/mL	154 min
Cc1ccc(-n2nc(C(=O)NCCNC(=O)c3nc(-c4ccc5c(c4)N(C4CCCC4)[C@H](C)C(=O)N5C)n(-c4ccc(C)cc4)n3)nc2-c2ccc3c(c2)N(C2CCCC2)[C@H](C)C(=O)N3C)cc1					166 min	33.7 ng/mL			
Cc1ccc(-n2nc(C(=O)N3CC4(C3)CN(C(=O)c3nc(-c5ccc6c(c5)N(C5CCCC5)[C@H](C)C(=O)N6C)n(-c5ccc(C)cc5)n3)C4)nc2-c2ccc3c(c2)N(C2CCCC2)[C@H](C)C(=O)N3C)cc1	76 nM	12.6 nM							
